{
  "source": "patent US5859333A",
  "about": "“Plants and processes for obtaining them” (Zeneca Limited, priority 1992, dated 1999)",
  "key": {"sweet corn SGP": {"molecular_target": "T1, sweet corn SGP (Zea mays, UniProt P80607)", "T1 construct": "not recombinant", "T1 sequence (P80607 whole entry)": "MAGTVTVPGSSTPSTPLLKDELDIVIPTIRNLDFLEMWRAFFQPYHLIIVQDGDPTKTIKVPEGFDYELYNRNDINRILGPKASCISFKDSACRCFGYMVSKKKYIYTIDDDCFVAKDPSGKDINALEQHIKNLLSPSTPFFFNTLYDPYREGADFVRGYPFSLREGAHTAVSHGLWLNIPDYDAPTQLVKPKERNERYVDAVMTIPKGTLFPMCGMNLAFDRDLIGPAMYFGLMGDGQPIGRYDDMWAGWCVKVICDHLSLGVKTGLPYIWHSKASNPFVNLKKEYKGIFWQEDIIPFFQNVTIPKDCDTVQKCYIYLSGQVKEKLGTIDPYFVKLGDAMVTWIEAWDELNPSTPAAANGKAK", "test": "Self-glucosylating protein (SGP) assay, incorporation of 14C-glucose from UDP-[14C]glucose into TCA-precipitable protein", "assay_type": "biochemical", "conditions": "for inhibitory effect on activity of sweet corn SGP: result in words; for stimulating effect of divalent cation on sweet corn SGP activity: concentration dependence measured, manganese at 5 mM", "experimental": "The reaction was stopped by the addition of 1 ml of 10% TCA (trichloroacetic acid). After standing for 10 minutes the sample was passed through a nitrocellulose filter, type HA 0.45 uM, washed with about 3 ml 10% TCA and approximately 10 ml of water and the filter dried under an infrared lamp. Following this, the filter was placed in 4 ml of scintillation liquid (Ecolume) and measured for ^14 C radioactivity in a Searle Delta 300 6890 liquid scintillation counter.\nThe radioactivity measured on the filter represents ^14 C-glucose that was incorporated into TCA-precipitable material (assuming no conversion to the glucose molecule into any other compound). […] Endogenously glucosylated SGP would not be detectable and could not be quantitated by this method."}, "Rabbit muscle SGP": {"molecular_target": "T2, Rabbit muscle SGP (Oryctolagus cuniculus, UniProt P13280)", "T2 construct": "from tissue; host or cells: rabbit muscle", "T2 sequence (P13280 1-333)": "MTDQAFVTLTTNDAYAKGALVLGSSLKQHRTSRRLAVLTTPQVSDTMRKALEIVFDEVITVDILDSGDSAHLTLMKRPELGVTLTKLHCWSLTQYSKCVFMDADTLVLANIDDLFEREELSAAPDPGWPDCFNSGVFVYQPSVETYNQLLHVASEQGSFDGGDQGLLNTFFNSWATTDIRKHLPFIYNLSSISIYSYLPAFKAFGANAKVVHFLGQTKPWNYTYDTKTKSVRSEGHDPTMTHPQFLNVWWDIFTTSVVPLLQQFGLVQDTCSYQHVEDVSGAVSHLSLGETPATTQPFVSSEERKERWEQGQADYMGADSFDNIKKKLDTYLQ", "test": "Self-glucosylation activity of rabbit muscle SGP (glycogenin)", "assay_type": "biochemical", "conditions": "for inhibition of the self-glucosylating protein in rabbit muscle: act as alternative substrates"}, "[1]": {"tested_on": "proteins of molecular weight higher than SGP", "conditions": "16 fold purified extract, 24 hr"}, "[2]": {"molecular_target": "amylogenin (self-glucosylating protein, SGP) from maize (Zea mays) endosperm (Zea mays) (UniProt P80607)"}},
  "note": "Where two headings read alike, the source gives them in different places. Where no end group is shown, it is not given here.",
  "data": [
    {"compound": "Nc1ncnc2c1ncn2[C@@H]1O[C@H](COP(=O)(O)OP(=O)(O)OP(=O)(O)O)[C@@H](O)[C@H]1O", "note": "[ATP, adenosine triphosphate]", "values": [
      {"measurement": "IC50", "setting": "sweet corn SGP", "result": 100, "unit": "µM"},
      {"measurement": "inhibitory effect on activity of sweet corn SGP", "setting": "sweet corn SGP", "result": "potent inhibitor"},
      {"measurement": "potency as inhibitor of sweet corn SGP relative to rabbit muscle SGP", "setting": "sweet corn SGP; sweet corn SGP vs rabbit muscle SGP", "result": 30, "unit": "fold"},
      {"measurement": "IC50", "setting": "Rabbit muscle SGP; read-out: concentration giving 50% inhibition of rabbit muscle SGP", "result": 3500, "unit": "µM"}
    ]},
    {"compound": "[Ca+2]", "note": "[Calcium]", "values": [
      {"measurement": "stimulating effect of divalent cation on sweet corn SGP activity", "setting": "sweet corn SGP", "result": "no stimulatory effect"}
    ]},
    {"compound": "O=C(O)CN(CCN(CC(=O)O)CC(=O)O)CC(=O)O", "note": "[EDTA, ethylene diamine tetra acetate]", "values": [
      {"measurement": "sweet corn SGP activity after treatment with chelator", "setting": "sweet corn SGP; treated with EDTA", "result": "looses all its activity"}
    ]},
    {"compound": "[Cl][Mn][Cl]", "note": "[Manganese, MnCl2]", "values": [
      {"measurement": "stimulating effect of divalent cation on sweet corn SGP activity", "setting": "sweet corn SGP", "result": "most potent stimulating effect"},
      {"measurement": "stimulation of muscle SGP by divalent cation", "setting": "Rabbit muscle SGP; result in words", "result": "stimulated"},
      {"measurement": "effect on radioglucosylation of higher molecular weight proteins", "setting": "[1]; 1 mM", "result": "proceeds"},
      {"measurement": "effect on radioglucosylation of higher molecular weight proteins", "setting": "[1]; 5 mM", "result": "inhibited"}
    ]},
    {"compound": "N=C(N)NCCC[C@H](N)C(=O)O", "note": "[arginine]", "values": [
      {"measurement": "inhibitory effect on activity of sweet corn SGP", "setting": "sweet corn SGP", "result": "No effect"}
    ]},
    {"compound": "[Mg+2]", "note": "[magnesium]", "values": [
      {"measurement": "maximum stimulating effect on sweet corn SGP", "setting": "sweet corn SGP; at 10 mM concentration", "result": "about 50%"}
    ]},
    {"compound": "O=[N+]([O-])c1ccc(O)cc1", "note": "[p-Nitrophenol]", "values": [
      {"measurement": "inhibitory effect on activity of sweet corn SGP", "setting": "sweet corn SGP", "result": "no effect"}
    ]},
    {"compound": "O=[N+]([O-])c1ccc(OC2O[C@H](CO)[C@@H](O[C@H]3O[C@H](CO)[C@@H](O)[C@H](O)[C@H]3O)[C@H](O)[C@H]2O)cc1", "note": "(some centres unmarked) [p-nitro-phenylmaltose]", "values": [
      {"measurement": "inhibition of the self-glucosylating protein in rabbit muscle", "setting": "Rabbit muscle SGP; result in words", "result": "inhibited"}
    ]},
    {"compound": "O=[N+]([O-])c1ccc(OC2O[C@H](CO)[C@@H](O[C@H]3O[C@H](CO)[C@@H](O[C@H]4O[C@H](CO)[C@@H](O[C@H]5O[C@H](CO)[C@@H](O)[C@H](O)[C@H]5O)[C@H](O)[C@H]4O)[C@H](O)[C@H]3O)[C@H](O)[C@H]2O)cc1", "note": "(some centres unmarked) [p-nitrophenyl- maltotetrose]", "values": [
      {"measurement": "inhibition of the self-glucosylating protein in rabbit muscle", "setting": "Rabbit muscle SGP; result in words", "result": "inhibited"}
    ]},
    {"compound": "O=[N+]([O-])c1ccc(O[C@H]2O[C@H](CO)[C@@H](O)[C@H](O)[C@H]2O)cc1", "note": "[p-nitrophenyl-alpha-glucoside]", "values": [
      {"measurement": "inhibitory effect on activity of sweet corn SGP", "setting": "sweet corn SGP", "result": "no effect"}
    ]},
    {"compound": "O=[N+]([O-])c1ccc(O[C@@H]2O[C@H](CO)[C@@H](O)[C@H](O)[C@H]2O)cc1", "note": "[p-nitrophenyl-beta-glucoside]", "values": [
      {"measurement": "inhibitory effect on activity of sweet corn SGP", "setting": "sweet corn SGP", "result": "no effect"}
    ]},
    {"compound": "O=[N+]([O-])c1ccc(OC2O[C@H](CO)[C@@H](O[C@H]3O[C@H](CO)[C@@H](O[C@H]4O[C@H](CO)[C@@H](O)[C@H](O)[C@H]4O)[C@H](O)[C@H]3O)[C@H](O)[C@H]2O)cc1", "note": "(some centres unmarked) [p-nitrophenylmaltotriose]", "values": [
      {"measurement": "inhibition of the self-glucosylating protein in rabbit muscle", "setting": "Rabbit muscle SGP; result in words", "result": "inhibited"}
    ]},
    {"compound": "TPCK-trypsin (enzyme)", "values": [
      {"measurement": "proteolysis (trypsinolysis) of SGP", "setting": "[2]", "result": 70, "unit": "%"}
    ]},
    {"compound": "synthetic peptide comprising the same amino acid sequence as the glucosylated tryptic peptide T2: synthetic peptide with the sequence of tryptic peptide T2 (SEQ ID NO: 2, E G A N F V X G Y P F S L R) (EGANFVXGYPFSLR; not fully specified; X: residue not identified in the source)", "values": [
      {"measurement": "inhibitory effect on activity of sweet corn SGP", "setting": "sweet corn SGP", "result": "No effect"}
    ]}
  ]
}
